Reference: PubChem BioAssay AID1963980 (Molecular Pharmacology Branch, DTP, NCI, 2024)

System: 475296-252-R-J1-PDC spheroid viability
Assay: Anticancer human tumor 475296-252-R-J1-PDC patient-derived rectal carcinoma cell line growth inhibition [PI3K]
Settings: spheroids with HUVEC and MSC; for IC50: curve of first compound; for viability, T/C: stronger effect = lower value
How it was run: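 Multi-cell spheroids combine tumor cells with HUVEC and human MSCs, treated with targeted agents alone or with inavolisib, alpelisib, duvelisib or copanlisib. Concentrations fall in half-log steps from at or near clinical Cmax, or from 10 microM where Cmax is unknown; viability read-out.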
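Also: spheroids exposed to agents for seven days before readout.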

Question: Which results are given for `CNC(=O)c1ccc(N2C(=S)N(c3ccc(C#N)c(C(F)(F)F)c3)C(=O)C2(C)C)cc1F` + COc1c(OCCCN2CCOCC2)ccc2c3n(c(=NC(=O)c4cnc(N)nc4)nc12)CCN3?
Answer: IC50 (second compound 0.00316 µM): > 10000 nM; IC50 (second compound 0.01 µM): > 10000 nM; IC50 (second compound 0.0316 µM): > 10000 nM; IC50 (second compound 0.1 µM): > 10000 nM; IC50 (second compound 0.316 µM): > 10000 nM; IC50 (second compound 1 µM): > 10000 nM; viability, T/C (second compound 0.00316 µM, first compound 0.0316 µM): 99.1%; viability, T/C (second compound 0.00316 µM, first compound 0.1 µM): 107%; viability, T/C (second compound 0.00316 µM, first compound 0.316 µM): 101%; viability, T/C (second compound 0.00316 µM, first compound 1 µM): 95.8%; viability, T/C (second compound 0.00316 µM, first compound 3.16 µM): 103%; viability, T/C (second compound 0.00316 µM, first compound 10 µM): 108%; viability, T/C (second compound 0.01 µM, first compound 0.0316 µM): 96.6%; viability, T/C (second compound 0.01 µM, first compound 0.1 µM): 94.7%; viability, T/C (second compound 0.01 µM, first compound 0.316 µM): 102%; viability, T/C (second compound 0.01 µM, first compound 1 µM): 97.5%; viability, T/C (second compound 0.01 µM, first compound 3.16 µM): 100%; viability, T/C (second compound 0.01 µM, first compound 10 µM): 96.2%; viability, T/C (second compound 0.0316 µM, first compound 0.0316 µM): 76%; viability, T/C (second compound 0.0316 µM, first compound 0.1 µM): 88.5%; viability, T/C (second compound 0.0316 µM, first compound 0.316 µM): 89.7%; viability, T/C (second compound 0.0316 µM, first compound 1 µM): 98.1%; viability, T/C (second compound 0.0316 µM, first compound 3.16 µM): 91.9%; viability, T/C (second compound 0.0316 µM, first compound 10 µM): 107%; viability, T/C (second compound 0.1 µM, first compound 0.0316 µM): 75.7%; viability, T/C (second compound 0.1 µM, first compound 0.1 µM): 68.5%; viability, T/C (second compound 0.1 µM, first compound 0.316 µM): 83.1%; viability, T/C (second compound 0.1 µM, first compound 1 µM): 81%; viability, T/C (second compound 0.1 µM, first compound 3.16 µM): 89.4%; viability, T/C (second compound 0.1 µM, first compound 10 µM): 87.3%; viability, T/C (second compound 0.316 µM, first compound 0.0316 µM): 76.6%; viability, T/C (second compound 0.316 µM, first compound 0.1 µM): 68.1%; viability, T/C (second compound 0.316 µM, first compound 0.316 µM): 71.7%; viability, T/C (second compound 0.316 µM, first compound 1 µM): 80.9%; viability, T/C (second compound 0.316 µM, first compound 3.16 µM): 70.5%; viability, T/C (second compound 0.316 µM, first compound 10 µM): 72%; viability, T/C (second compound 1 µM, first compound 0.0316 µM): 72.5%; viability, T/C (second compound 1 µM, first compound 0.1 µM): 72%; viability, T/C (second compound 1 µM, first compound 0.316 µM): 50.6%; viability, T/C (second compound 1 µM, first compound 1 µM): 60.1%; viability, T/C (second compound 1 µM, first compound 3.16 µM): 63.5%; viability, T/C (second compound 1 µM, first compound 10 µM): 61.5%

Question: Which IC50 (second compound 0.00316 µM) does the source give for `Cn1cnc2c(F)c(Nc3ccc(Br)cc3Cl)c(C(=O)NOCCO)cc21` + COc1c(OCCCN2CCOCC2)ccc2c3n(c(=NC(=O)c4cnc(N)nc4)nc12)CCN3 here?
Answer: 2050 nM

Question: What about the IC50 (second compound 0.01 µM) of the same compound?
Answer: 469 nM

Question: And the IC50 (second compound 0.0316 µM)?
Answer: 162 nM

Question: And the IC50 (second compound 0.1 µM)?
Answer: 94.2 nM

Question: What about the IC50 (second compound 0.316 µM) of the same compound?
Answer: 27.1 nM

Question: What about the IC50 (second compound 1 µM) of the same compound?
Answer: < 9.49 nM

Question: What about the viability, T/C (second compound 0.00316 µM, first compound 0.00949 µM) of the same compound?
Answer: 88%

Question: And the viability, T/C (second compound 0.00316 µM, first compound 0.03 µM)?
Answer: 75.5%

Question: And the viability, T/C (second compound 0.00316 µM, first compound 0.0949 µM)?
Answer: 73.4%

Question: And the viability, T/C (second compound 0.00316 µM, first compound 0.3 µM)?
Answer: 60.6%

Question: What about the viability, T/C (second compound 0.00316 µM, first compound 0.949 µM) of the same compound?
Answer: 62.5%

Question: And the viability, T/C (second compound 0.00316 µM, first compound 3 µM)?
Answer: 44.2%

Question: What about the viability, T/C (second compound 0.01 µM, first compound 0.00949 µM) of the same compound?
Answer: 90.6%

Question: And the viability, T/C (second compound 0.01 µM, first compound 0.03 µM)?
Answer: 90%

Question: What about the viability, T/C (second compound 0.01 µM, first compound 0.0949 µM) of the same compound?
Answer: 63%

Question: What about the viability, T/C (second compound 0.01 µM, first compound 0.3 µM) of the same compound?
Answer: 53.3%

Question: What about the viability, T/C (second compound 0.01 µM, first compound 0.949 µM) of the same compound?
Answer: 53.8%

Question: What about the viability, T/C (second compound 0.01 µM, first compound 3 µM) of the same compound?
Answer: 36.9%

Question: And the viability, T/C (second compound 0.0316 µM, first compound 0.00949 µM)?
Answer: 84.1%

Question: What about the viability, T/C (second compound 0.0316 µM, first compound 0.03 µM) of the same compound?
Answer: 63.3%

Question: And the viability, T/C (second compound 0.0316 µM, first compound 0.0949 µM)?
Answer: 56.3%

Question: And the viability, T/C (second compound 0.0316 µM, first compound 0.3 µM)?
Answer: 42.6%

Question: And the viability, T/C (second compound 0.0316 µM, first compound 0.949 µM)?
Answer: 37%

Question: What about the viability, T/C (second compound 0.0316 µM, first compound 3 µM) of the same compound?
Answer: 18.8%

Question: What about the viability, T/C (second compound 0.1 µM, first compound 0.00949 µM) of the same compound?
Answer: 65%

Question: And the viability, T/C (second compound 0.1 µM, first compound 0.03 µM)?
Answer: 67.6%

Question: And the viability, T/C (second compound 0.1 µM, first compound 0.0949 µM)?
Answer: 48.7%

Question: And the viability, T/C (second compound 0.1 µM, first compound 0.3 µM)?
Answer: 25.6%

Question: And the viability, T/C (second compound 0.1 µM, first compound 0.949 µM)?
Answer: 16.5%

Question: And the viability, T/C (second compound 0.1 µM, first compound 3 µM)?
Answer: 6.68%

Question: And the viability, T/C (second compound 0.316 µM, first compound 0.00949 µM)?
Answer: 55.9%

Question: And the viability, T/C (second compound 0.316 µM, first compound 0.03 µM)?
Answer: 49.8%

Question: What about the viability, T/C (second compound 0.316 µM, first compound 0.0949 µM) of the same compound?
Answer: 29.4%

Question: And the viability, T/C (second compound 0.316 µM, first compound 0.3 µM)?
Answer: 10.7%

Question: What about the viability, T/C (second compound 0.316 µM, first compound 0.949 µM) of the same compound?
Answer: 5.48%

Question: And the viability, T/C (second compound 0.316 µM, first compound 3 µM)?
Answer: 2.56%

Question: And the viability, T/C (second compound 1 µM, first compound 0.00949 µM)?
Answer: 47.1%

Question: What about the viability, T/C (second compound 1 µM, first compound 0.03 µM) of the same compound?
Answer: 41.5%

Question: What about the viability, T/C (second compound 1 µM, first compound 0.0949 µM) of the same compound?
Answer: 22.2%

Question: What about the viability, T/C (second compound 1 µM, first compound 0.3 µM) of the same compound?
Answer: 9.1%

Question: And the viability, T/C (second compound 1 µM, first compound 0.949 µM)?
Answer: 5.23%

Question: And the viability, T/C (second compound 1 µM, first compound 3 µM)?
Answer: 3.35%
